For one data set, the target named is Cx43 HC (Homo sapiens, UniProt P17302). To be noted: cited from earlier work.
Data set [1] concerns control hiPSC-A/-MN co-cultures. As to the kind of experiment: Multielectrode array (MEA) recording of control hiPSC-A/-MN co-cultures. In kind it is cell-based, human. To be noted: for hiPSC-Neuron spike activity: co-cultured 1 week. The source says:
(§1) Multi-electrode array culture and recordings: Multi-electrode array (MEA) plates (MultiChannel Systems, 60MEA200/30iR-Ti-gr,) with 60 electrodes, including 59 active and 1 reference, and a MEA2100 (MultiChannel Systems) platform were used for the recording of neuronal activity in hiPSC-A/-MN co-cultures as we have previously described^50. Briefly, hiPSC-A from healthy subjects and ALS patients and hiPSC-MN from a single control line were serially co-cultured at densities of 100,000 cells/plate and 500,000 cells/plate, respectively. We analyzed the following electrophysiological parameters: spike rate, burst rate, and percentage of spiking and bursting electrodes (on the overall 59 recording electrodes). The recording of the baseline activity of MEA plates was performed every 3 days over 1-minute period for 2 weeks after initial plating. For pharmacological assays, we performed 5 minutes recordings to capture slower electrophysiological effects of HC blockers 36: baseline MEA activity for 1 minute, activity for 1 minute after 100 μl medium exchange with drug vehicle, and activity for 3 minutes after the exchange of 100 μl of medium containing the compound of interest and the drug vehicle. For analysis purposes, we considered only the electrodes with spike rate >0. Spiking and bursting activity is expressed as the mean of individual MEA plates.

The subject of data set [2] is rodent SOD1^G93A astrocyte-induced toxicity. As to the kind of experiment: ALS astrocyte-induced MN toxicity, rodent model of ALS. In kind it is cell-based.
Another data set concerns gap junction channels. The note with it: cited from earlier work.
For data set [3], the system named is ALS hiPSC-A / control hiPSC-MN co-cultures. The data set is described as follows: MEA recording of ALS hiPSC-A co-cultured with control hiPSC-MN. In kind it is cell-based, human. To be noted: for ALS astrocyte-mediated hyperexcitability (neuronal spiking and bursting activity): 10 μM, within 5 minutes.
Excerpt: as §1

In data set [4] the target is T1, connexin 43 (Cx43) gap junctions (Homo sapiens, UniProt P17302).
T1 construct: host or cells: astrocyte cancer cell co-cultures
To be noted: cited from earlier work.

The next data set concerns control hiPSC-MN. The data set is described as follows: Survival of control hiPSC-MN alone or co-cultured with control hiPSC-A. In kind it is cell-based, human. The note with it: several concentrations; hiPSC-MN alone or in co-culture with control hiPSC-A. The procedure: Human iPSC-motor neuron culture: Briefly, NPC differentiated with the aforementioned spinal cord patterning protocol were cultured for up to 60 DIV with “neuronal differentiating medium”^58,59. To prevent astrocyte overproliferation, neuronal cultures were treated once with 0.02 μM cytosine arabinoside (Ara-C) (Millipore Sigma) for 48 h. While the majority of these cells are Tuj1+/ChAT+, consistent with a spinal motor neuronal phenotype, a smaller subset of neurons (Tuj1+/ChAT−) is also present and consists mainly of GABAergic interneurons^58.
(§2) Human iPSC-astrocyte and hiPSC-motor neuron co-culture: Human iPSC-A form healthy subjects and ALS patients were cultured for 86 DIV and then plated in 24 well plates on glass cover-slips at a density of 20,000 cells/well. Four days later, hiPSC-MN from control samples, cultured for 60 DIV prior to use, were plated on the top of astrocytes at a density of 50,000 cells/well. This was considered day 1 of co-culture. Co-cultures were maintained in motor neuronal medium enriched with 1% FBS for a total of 14 days before fixing for immunocytochemistry. Co-culture medium was changed every third day with half medium exchange. For pharmacological assays on Cx43 HC, we used GAP19 (Tocris, 53533) at a concentration of 340 μM^21,50 and tonabersat (SB-220453) at concentrations of 1 μM, 10 μM and 100 μM^7,8 (Millipore Sigma, SML1354).

A further data set deals with brain metastases. The note with it: xenograft and immunocompetent models; cited from earlier work.
The conditions of data set [5]: in vivo; cited from earlier work.
For data set [6] the following is noted: in vivo studies; cited from earlier work.
Data set [7] concerns FALS and SALS hiPSC-A/MN co-culture. The data set is described as follows: hiPSC-astrocyte / hiPSC-motor neuron direct co-culture, neuron survival by immunostaining. To be noted: for neuroprotection of control hiPSC-MN in co-culture with ALS hiPSC-A: 3 days. In kind it is cell-based, human. The procedure: as §2
The subject of another data set is hiPSC-MN alone. The data set is described as follows: MEA recording of hiPSC-MN alone in culture. In kind it is cell-based, human. The note with it: 10 μM.
The conditions of data set [8]: cited from earlier work; for tolerability / safety: humans, phase II clinical trials.
In data set [9] the test system is transwell co-culture of FALS and SALS hiPSC-A with hiPSC-MN. As to the kind of experiment: hiPSC-astrocyte / hiPSC-motor neuron transwell co-culture, neuron survival by immunostaining. In kind it is cell-based, human. The procedure: Human iPSC-astrocyte and hiPSC-motor neuron co-culture in a transwell system: Human iPSC-MN from control samples were cultured for 56 DIV and then plated in 12 well plates on glass coverslips at a density of 250,000 cells/well. […] Four days later, the inserts with 90 DIV astrocytes were placed on the top of 12-well plates with 60 DIV motor neurons at the bottom. This was considered day 1 of “transwell” co-cultures. Half medium exchanges were performed from both the top and the bottom compartments. Transwell co-culture were otherwise maintained as conventional co-cultures and neurons on glass coverslips were fixed for immunocytochemistry after 14 days.

For data set [10] the following is noted: in vivo, cited from earlier work.

Entries after “also recorded” stand apart in the source; their conditions may differ. Where two headings read alike, the source gives them in different places.

Chain of Cx43 HC (P17302 2-382 limits assumed): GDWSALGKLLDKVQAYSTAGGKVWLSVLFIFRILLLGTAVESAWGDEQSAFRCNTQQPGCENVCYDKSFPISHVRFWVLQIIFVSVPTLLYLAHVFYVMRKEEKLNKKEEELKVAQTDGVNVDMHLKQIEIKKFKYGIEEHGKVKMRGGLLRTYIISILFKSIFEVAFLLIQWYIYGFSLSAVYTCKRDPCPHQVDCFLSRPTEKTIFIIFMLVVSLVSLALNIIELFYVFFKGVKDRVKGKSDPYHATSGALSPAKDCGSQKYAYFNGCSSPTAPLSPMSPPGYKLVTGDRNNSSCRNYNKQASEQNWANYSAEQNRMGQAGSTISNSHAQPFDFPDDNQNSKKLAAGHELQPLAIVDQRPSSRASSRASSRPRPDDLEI
T1 sequence (P17302 2-382 limits assumed, species assumed): as the sequence (P17302 2-382 limits assumed) above

Consider “KQIEIKKFK [Gap19, nonapeptide derived from the cytoplasmic loop of Cx43]”, for which the “inhibition of astroglial Cx43 hemichannels” value with Cx43 HC is recorded as “inhibits astroglial Cx43 hemichannels in a dose-dependent manner”. Also, the neuronal firing entry in data set [1] (hiPSC-Astro/Neuron co-culture, 1 minute after application) was “reduced neuronal firing”. For the same compound, in data set [2], the “neuroprotection against ALS astrocyte-induced MN toxicity” value is reported as “can be neuroprotective”. The “effect on gap junction channels” value in the data set on gap junction channels is listed as “without affecting gap junction channels”.

On to `CC(=O)c1ccc2c(c1)[C@H](NC(=O)c1ccc(F)c(Cl)c1)[C@H](O)C(C)(C)O2` [tonabersat, N-[(3S,4S)-6-acetyl-3-hydroxy-2,2-dimethyl-3,4-dihydro-2H-1-benzopyran-4-yl]-3-chloro-4-fluorobenzamide], for which the “levels of spiking and bursting activity after treatment versus untreated control co-cultures” value in [3] (10 μM acute treatment, day 6 of co-culture) is “not significantly different”. Moreover, the “ALS astrocyte-mediated hyperexcitability (neuronal spiking and bursting activity)” value in data set [3] (day 6 of co-culture) is recorded as “significantly reduced”; in data set [3] (day 6 of co-culture, listed as Tonabersat), “significant inhibition”. Moreover, the “concentration necessary to reduce ALS hiPSC-astrocyte mediated neuron spike activity” value in data set [3] (MEA, co-cultured 1 week, 1 minute after application) amounted to 100 µM. In data set [4] (astrocyte cancer cell co-cultures), the “release of IFNα and TNF” value was “inhibited”. The “dye transfer from astrocytes to cancer cells” value in [4] is “inhibited dye transfer from astrocytes to cancer cells”. Also, the “hiPSC-MN survival (ChAT+ and Isl1+)” value with control hiPSC-MN is “did not have any effect on hiPSC-MN survival; also recorded: no effect on ChAT+ and Isl1+ control hiPSC-MN survival”. The brain metastases result in the data set with brain metastases was “inhibited brain metastases”. The “concentrations that specifically block Cx43 HC” value on Cx43 HC (low concentrations) is 1 to 10 µM. The “neuronal spiking and bursting activity” value in data set [1] (1 μM, 5 minutes after application, compared with 10 μM) is “less effective”; in [1] (10 μM, within 5 minutes of application) it was “significantly reduced neuronal spiking and bursting activity”. Further, the hiPSC-Neuron spike activity entry is recorded as “reduction of hiPSC-Neuron spike activity” in data set [1] (10 μM, 1 minute after application) and “reduction of hiPSC-Neuron spike activity” in [1] (100 μM, 1 minute after application). The “hiPSC-Neuron spike rate, burst rate, number of electrodes firing and bursting” value in data set [1] (hiPSC-Astro/Neuron co-culture) was “reduced hiPSC-Neuron spike rate, burst rate, number of electrodes firing and bursting”. Moreover, the hiPSC-Neuron firing result in [1] (hiPSC-Astro/Neuron co-culture, 1 and 5 minutes after application) is recorded as “reduced hiPSC-Neuron firing”. Further, in data set [5], the “neurogenic extravasation of plasma protein in the meninges” value is given as “reduce neurogenic extravasation of plasma protein in the meninges”. The seizures result in [6] was “inhibitory effects”. Also, the “rescue of ChAT MNs” value in data set [7] (1 μM, direct co-culture, 14 days) was “rescues ChAT MNs”; in data set [7] (10 μM, direct co-culture, 14 days), “rescues ChAT MNs”. Also, the “neuroprotection of control hiPSC-MN in co-culture with ALS hiPSC-A” value in data set [7] (10 μM, early (day 5 to day 8 of co-culture)) is listed as “neuroprotection of control hiPSC-MN; also recorded: Significant neuroprotection”; in data set [7] (10 μM, late (day 11 to day 14 of co-culture)) it was “This protection did not occur; also recorded: Significant neuroprotection was appreciated after early but not late exposure”. Further, the “neuroprotection of hiPSC-MN” value in data set [7] (100 μM, direct co-culture, 14 days) is “not neuroprotective”. In addition, the “protection of non-MN populations (ChAT− and Isl1− neurons)” value in data set [7] (direct co-culture with FALS and SALS hiPSC-A) is “protective to non-MN populations; also recorded: can be rescued with tonabersat”. In addition, in data set [7] (direct co-culture, 1 μM, 10 μM and 100 μM, 14 day incubation), the “neuroprotection of hiPSC-MN (ChAT, Isl-1) from ALS astrocyte-mediated death” value is “can protect MNs from ALS astrocyte-induced excitotoxicity; also recorded: protects hiPSC-MN from ALS astrocyte-mediated death in a dose-dependent manner; also recorded: dose-dependent neuroprotection”. For the same compound, the neuronal electrophysiological activity entry in the data set with hiPSC-MN alone is “did not observe any change in neuronal electrophysiological activity; also recorded: does not result in an alteration of electrophysiological activity”. Besides, the tolerability / safety result is “well tolerated and safe” in data set [8]; “excellent safety profile” in data set [8] (listed as Tonabersat). Also, the “effect on attacks of migraine aura” value in data set [8] (study by Hauge and colleagues) is given as “preventive effect”. For the same compound, in data set [8] (study by Hauge and colleagues), the “efficacy on non-aura attacks” value is “no efficacy”. For the same compound, the “neuroprotection of hiPSC-MN (ChAT+, Isl1+)” value in data set [9] (transwell co-culture, 14 days) was “neuroprotective effect of tonabersat was also seen; also recorded: confirms dose-dependent neuroprotection”. In data set [9] (transwell culture with FALS and SALS hiPSC-A), the “rescue of non-motor neuron cell death” value is listed as “can be rescued with tonabersat”. Also, the cortical spreading depression entry in data set [10] is given as “inhibitory effects on cortical spreading depression”; in data set [10] (listed as Tonabersat), “antagonize cortical spreading depression”.

Source of the values: US12226393B2, “Neuroprotective compounds for amyotrophic lateral sclerosis” (THE JOHNS HOPKINS UNIVERSITY, priority 2019, dated 2025).
